We go through one molecule from patent US20210127709A1, “FEED ADDITIVE COMPRISING A TRP MODULATOR” (PerformaNat GmbH, priority 2018, published 2021).

The structures appear in SMILES notation.

The assay has as its system ruminal epithelium. Put plainly: Ussing chamber: transepithelial current and conductance. In kind it is cell-based. The note with it: sheep ruminal epithelium, mucosal addition, short-circuit mode, 37° C. The text has this: All sheep were slaughtered in accordance with German laws for the protection of animals. Removal of tissue occurred directly after death, was stripped and transported to the laboratory in a warm and gassed transport buffer.
The tissue was mounted into conventional Ussing chambers with an exposure area of 3.14 cm^2 (as described in (Martens and Gabel, 1988, Transport of Na and Cl across the epithelium of ruminant forestomachs: rumen and omasum. A review. Comparative Biochemistry and Physiology Part A: Physiology 90, 569-575)). The chambers contained 16 ml of mucosal and serosal buffer, which was circulated with a gas lift system and warmed to 37° C. with a water jacket.
After ten minutes the chambers were clamped to short circuit mode (Mussler Scientific Instruments, Aachen, Germany). Transepithelial current (Isc) and conductance (Gt) were measured continuously.
After an equilibration time of about 30 min under short-circuit conditions, the Ussing chambers were divided into two groups, depending on the transepithelial conductance of the tissues inside the chambers. Group 1 (TRP-group) and Group 2 (TRP-PG-group.)
Depending on the group 4.8 μl of TRP agonist combined with propylene glycol or 2.4 mg of TRP Agonist was added to the mucosal side of the tissues. Transepithelial current (Isc) and transepithelial conductance (Gt) were measured continuously. […]

In the case of `CC1CCC(C(C)C)C(O)C1` (centres unmarked) [TRP (menthol), menthol], the “Transepithelial conductance (Gt), maximum increase after addition, mean” value was “+0.563” and the “Transepithelial current (Isc), maximum increase after addition, mean” value is given as “+0.727”.
